Calls of active or inactive are those of the source. The rule behind the calls is not given here.
Legend:
HeLa [1] = assay: Inhibition of cell proliferation of human HeLa cells assessed as induction of retardation of cell proliferation at 10 uM incubated for 48 hrs by CFSE staining based FACS method; type: functional
U-87 MG [2] = assay: Induction of apoptosis in human U87MG cells assessed as early apoptotic cells level at 10 uM incubated for 48 hrs by Annexin V-FITC and propidium iodide staining based flow cytometry (reference value: 2%); type: functional, U-87MG ATCC
Nucleic Acid [3] = assay: Inhibition of microRNA-26 in human HeLa cells assessed as reduction in microRNA-21 expression at 10 uM incubated for 24 hrs by RT-qPCR method; type: cell-based
U-87 MG [4] = assay: Induction of apoptosis in human U87MG cells assessed as viable cells level at 10 uM incubated for 48 hrs by Annexin V-FITC and propidium iodide staining based flow cytometry (reference value: 94.1%); type: functional, U-87MG ATCC
HeLa [5] = assay: Induction of apoptosis in human HeLa cells assessed as late apoptotic cells level at 10 uM incubated for 48 hrs in presence of 50 uM H2O2 by Annexin V-FITC and propidium iodide staining based flow cytometry (reference value: 2.2%); type: functional
Nucleic Acid [6] = assay: Inhibition of microRNA-148 in human HeLa cells assessed as reduction in microRNA-21 expression at 10 uM incubated for 24 hrs by RT-qPCR method; type: cell-based
Nucleic Acid [7] = assay: Inhibition of microRNA-21 in human HeLa cells assessed as reduction in microRNA-21 expression at 2.5 to 20 uM incubated for 24 hrs by stem-loop RT-PCR method; type: cell-based
U-87 MG [8] = assay: Induction of apoptosis in human U87MG cells assessed as late apoptotic cells level at 10 uM incubated for 48 hrs in presence of 50 uM H2O2 by Annexin V-FITC and propidium iodide staining based flow cytometry (reference value: 2.6%); type: functional, U-87MG ATCC
HeLa [9] = assay: Induction of apoptosis in human HeLa cells assessed as early apoptotic cells level at 10 uM incubated for 48 hrs by Annexin V-FITC and propidium iodide staining based flow cytometry (reference value: 2.9%); type: functional
Nucleic Acid [10] = assay: Inhibition of microRNA-126 in human HeLa cells assessed as reduction in microRNA-21 expression at 10 uM incubated for 24 hrs by RT-qPCR method; type: cell-based
U-87 MG [11] = assay: Inhibition of cell proliferation of human U87MG cells assessed as time required for cell doubling by measuring mean fluorescence intensity at 10 uM incubated for 48 hrs by CFSE staining based FACS method; type: functional; conditions: U-87MG ATCC
HeLa [12] = assay: Inhibition of cell proliferation of human HeLa cells assessed as induction of retardation of cell proliferation at 10 uM incubated for 48 hrs in presence of 50 uM H2O2 by CFSE staining based FACS method; type: functional
Nucleic Acid [13] = assay: Inhibition of microRNA-145 in human HeLa cells assessed as reduction in microRNA-21 expression at 10 uM incubated for 24 hrs by RT-qPCR method; type: cell-based
U-87 MG [14] = assay: Induction of apoptosis in human U87MG cells assessed as necrotic cells level at 10 uM incubated for 48 hrs in presence of 50 uM H2O2 by Annexin V-FITC and propidium iodide staining based flow cytometry (reference value: 1.3%); type: functional, U-87MG ATCC
U-87 MG [15] = assay: Induction of apoptosis in human U87MG cells assessed as necrotic cells level at 10 uM incubated for 48 hrs by Annexin V-FITC and propidium iodide staining based flow cytometry (reference value: 1.3%); type: functional, U-87MG ATCC
Nucleic Acid [16] = assay: Inhibition of microRNA-21 in human HeLa cells assessed as reduction in microRNA-21 expression at 10 uM incubated for 6 to 48 hrs by stem-loop RT-PCR method; type: cell-based
Nucleic Acid [17] = assay: Inhibition of microRNA-21 in human HeLa cells assessed as increase in PDCD4 protein expression at 10 uM incubated for 48 hrs by Western blot method; type: cell-based
HeLa [18] = assay: Effect on universal miRNA biosynthesis pathway-related gene expression in human HeLa assessed as XPO5 gene expression at 10 uM incubated for 24 hrs by RT-qPCR method; type: cell-based
U-87 MG [19] = assay: Induction of apoptosis in human U87MG cells assessed as late apoptotic cells level at 10 uM incubated for 48 hrs by Annexin V-FITC and propidium iodide staining based flow cytometry (reference value: 2.6%); type: functional, U-87MG ATCC
U-87 MG [20] = assay: Induction of apoptosis in human U87MG cells assessed as early apoptotic cells level at 10 uM incubated for 48 hrs in presence of 50 uM H2O2 by Annexin V-FITC and propidium iodide staining based flow cytometry (reference value: 2%); type: functional, U-87MG ATCC
HeLa [21] = assay: Effect on universal miRNA biosynthesis pathway-related gene expression in human HeLa assessed as AGO2 gene expression at 10 uM incubated for 24 hrs by RT-qPCR method; type: cell-based
HeLa [22] = assay: Induction of apoptosis in human HeLa cells assessed as necrotic cells level at 10 uM incubated for 48 hrs by Annexin V-FITC and propidium iodide staining based flow cytometry (reference value: 1.2%); type: functional
U-87 MG [23] = assay: Inhibition of cell proliferation of human U87MG cells assessed as induction of retardation of cell proliferation at 10 uM incubated for 48 hrs by CFSE staining based FACS method; type: functional; conditions: U-87MG ATCC
Nucleic Acid [24] = assay: Inhibition of microRNA-152 in human HeLa cells assessed as reduction in microRNA-21 expression at 10 uM incubated for 24 hrs by RT-qPCR method; type: cell-based
Nucleic Acid [25] = assay: Inhibition of microRNA-143 in human HeLa cells assessed as reduction in microRNA-21 expression at 10 uM incubated for 24 hrs by RT-qPCR method; type: cell-based
HeLa [26] = assay: Induction of apoptosis in human HeLa cells assessed as early apoptotic cells level at 10 uM incubated for 48 hrs in presence of 50 uM H2O2 by Annexin V-FITC and propidium iodide staining based flow cytometry (reference value: 2.9%); type: functional
Nucleic Acid [27] = assay: Inhibition of microRNA-133 in human HeLa cells assessed as reduction in microRNA-21 expression at 10 uM incubated for 24 hrs by RT-qPCR method; type: cell-based
HeLa [28] = assay: Effect on universal miRNA biosynthesis pathway-related gene expression in human HeLa assessed as DICER1 gene expression at 10 uM incubated for 24 hrs by RT-qPCR method; type: cell-based
Nucleic Acid [29] = assay: Inhibition of microRNA-146 in human HeLa cells assessed as reduction in microRNA-21 expression at 10 uM incubated for 24 hrs by RT-qPCR method; type: cell-based
U-87 MG [30] = assay: Induction of apoptosis in human U87MG cells assessed as viable cells level at 10 uM incubated for 48 hrs in presence of 50 uM H2O2 by Annexin V-FITC and propidium iodide staining based flow cytometry (reference value: 94.1%); type: functional, U-87MG ATCC
Nucleic Acid [31] = assay: Inhibition of microRNA-195 in human HeLa cells assessed as reduction in microRNA-21 expression at 10 uM incubated for 24 hrs by RT-qPCR method; type: cell-based
Nucleic Acid [32] = assay: Inhibition of microRNA-21 in human HeLa cells assessed as reduction in microRNA-21 expression at 10 uM incubated for 24 hrs by stem-loop RT-PCR method; type: cell-based
HeLa [33] = assay: Effect on universal miRNA biosynthesis pathway-related gene expression in human HeLa assessed as DGCR8 gene expression at 10 uM incubated for 24 hrs by RT-qPCR method; type: cell-based
HeLa [34] = assay: Induction of apoptosis in human HeLa cells assessed as late apoptotic cells level at 10 uM incubated for 48 hrs by Annexin V-FITC and propidium iodide staining based flow cytometry (reference value: 2.2%); type: functional
HeLa [35] = assay: Induction of apoptosis in human HeLa cells assessed as viable cells level at 10 uM incubated for 48 hrs in presence of 50 uM H2O2 by Annexin V-FITC and propidium iodide staining based flow cytometry (reference value: 93.7%); type: functional
HeLa [36] = assay: Inhibition of let-7a miRNA in human HeLa cells assessed as reduction in microRNA-21 expression at 10 uM incubated for 24 hrs by RT-qPCR method; type: cell-based
HeLa [37] = assay: Effect on universal miRNA biosynthesis pathway-related gene expression in human HeLa assessed as TARBP2 gene expression at 10 uM incubated for 24 hrs by RT-qPCR method; type: ADME, cell-based
U-87 MG [38] = assay: Inhibition of cell proliferation of human U87MG cells assessed as induction of retardation of cell proliferation at 10 uM incubated for 48 hrs in presence of 50 uM H2O2 by CFSE staining based FACS method; type: functional; conditions: U-87MG ATCC
HeLa [39] = assay: Induction of apoptosis in human HeLa cells assessed as viable cells level at 10 uM incubated for 48 hrs by Annexin V-FITC and propidium iodide staining based flow cytometry (reference value: 93.7%); type: functional
U-87 MG [40] = assay: Inhibition of cell proliferation of human U87MG cells assessed as time required for cell doubling by measuring mean fluorescence intensity at 10 uM incubated for 48 hrs in presence of 50 uM H2O2 by CFSE staining based FACS method; type: functional; conditions: U-87MG ATCC
HeLa [41] = assay: Induction of apoptosis in human HeLa cells assessed as necrotic cells level at 10 uM incubated for 48 hrs in presence of 50 uM H2O2 by Annexin V-FITC and propidium iodide staining based flow cytometry (reference value: 1.2%); type: functional
Nucleic Acid [42] = assay: Inhibition of microRNA-25 in human HeLa cells assessed as reduction in microRNA-21 expression at 10 uM incubated for 24 hrs by RT-qPCR method; type: cell-based
HeLa [43] = assay: Effect on universal miRNA biosynthesis pathway-related gene expression in human HeLa assessed as DROSHA gene expression at 10 uM incubated for 24 hrs by RT-qPCR method; type: cell-based

Compound: C#CCNC(=O)c1ccc(NC(=O)c2ccccc2Br)cc1
- inhibition (HeLa [1]): Active
- Activity (U-87 MG [2]): 2.3%
- inhibition (Nucleic Acid [3]): inactive
- Activity (U-87 MG [4]): 91.9%
- Activity (HeLa [5]): 19.1%
- inhibition (Nucleic Acid [6]): inactive
- inhibition (Nucleic Acid [7]): Active
- Activity (U-87 MG [8]): 10.2%
- Activity (HeLa [9]): 3.5%
- inhibition (Nucleic Acid [10]): inactive
- inhibition (U-87 MG [11]): Active
- inhibition (HeLa [12]): Active
- inhibition (Nucleic Acid [13]): inactive
- Activity (U-87 MG [14]): 3.5%
- Activity (U-87 MG [15]): 1.7%
- inhibition (Nucleic Acid [16]): Active
- inhibition (Nucleic Acid [17]): Active
- Activity (HeLa [18]): Non-toxic
- Activity (U-87 MG [19]): 4%
- Activity (U-87 MG [20]): 3.9%
- Activity (HeLa [21]): Non-toxic
- Activity (HeLa [22]): 1.5%
- inhibition (U-87 MG [23]): Active
- inhibition (Nucleic Acid [24]): inactive
- inhibition (Nucleic Acid [25]): inactive
- Activity (HeLa [26]): 8.9%
- inhibition (Nucleic Acid [27]): inactive
- Activity (HeLa [28]): Non-toxic
- inhibition (Nucleic Acid [29]): inactive
- Activity (U-87 MG [30]): 82.4%
- inhibition (Nucleic Acid [31]): inactive
- inhibition (Nucleic Acid [32]): Active
- Activity (HeLa [33]): Non-toxic
- Activity (HeLa [34]): 3.4%
- Activity (HeLa [35]): 67.5%
- inhibition (HeLa [36]): inactive
- Activity (HeLa [37]): Non-toxic
- inhibition (U-87 MG [38]): Active
- Activity (HeLa [39]): 91.6%
- inhibition (U-87 MG [40]): Active
- Activity (HeLa [41]): 4.5%
- inhibition (Nucleic Acid [42]): inactive
- Activity (HeLa [43]): Non-toxic

Compound: C#CCNC(=O)c1ccc(NC(=O)c2ccc(OC)c(OCc3ccccc3)c2)cc1
- inhibition (Nucleic Acid [32]): Active

Compound: C#CCNC(=O)c1ccc(NC(=O)c2ccc(OC)cc2OC)cc1
- inhibition (Nucleic Acid [32]): Active

Compound: C#CCNC(=O)c1ccc(NC(=O)c2cccc(I)c2)cc1
- inhibition (Nucleic Acid [32]): Active

Compound: C#CCNC(=O)c1ccc(NC(=O)c2cc(OC)ccc2OC)cc1
- inhibition (Nucleic Acid [32]): Active

Compound: C#CCNC(=O)c1ccc(/N=N/c2ccccc2)cc1
- inhibition (Nucleic Acid [17]): Active
- inhibition (Nucleic Acid [32]): Active

Compound: C#CCNC(=O)c1ccc(NC(=O)c2cccnc2)cc1
- inhibition (Nucleic Acid [32]): Active

Reference: ChEMBL document CHEMBL3611994, “Discovery of 4-benzoylamino-N-(prop-2-yn-1-yl)benzamides as novel microRNA-21 inhibitors” (Bioorg Med Chem, 2015)
